According to patent publication US20080206175A1, “Composition for Skin Whitening and Wrinkle Improvement Comprising Vaccinium Uliginosum Extract and Method for Preparation Thereof” (priority 2005, published 2008):

How the values were obtained:
B16 melanoma F10 cells [1] = assay: Inhibitory effect on total melanin production upon ultraviolet irradiation, B16 melanoma F10 cells; format: cell-based
B16 melanoma F10 cells [2] = assay: Inhibitory effect on melanin production in B16 melanoma F10 cells; format: cell-based; details: 10 μM, 72 hours
Method: B 16 melanoma F 10 cells were seeded into each well of a 24-well plate at a cell concentration of 10^4 cells/well. After 17 hours, the adhesion of the cells was confirmed and the medium was removed. […] The plate was incubated in a CO2 incubator for 72 hours and then the medium was removed. Next, 2 ml of NaOH was added into each well of the plate, followed by standing at 60° C. for 30 minutes. Then, the cell solution was measured for absorbance at 450 nm. The concentration of melanin was calculated compared to the melanin standard curve.

Structure (SMILES): O=c1cc(CO)occ1O [kojic acid]
- melanin production upon ultraviolet irradiation (B16 melanoma F10 cells [1]; 0.2 μM): 22.72 µg/mL
- melanin production upon ultraviolet irradiation (B16 melanoma F10 cells [1]; 2 μM): 19.22 µg/mL
- production of melanin (B16 melanoma F10 cells [2]): 16.54 µg/mL
